In ChEMBL document CHEMBL2375284, “Novel hybrids of natural isochroman-4-one bearing N-substituted isopropanolamine as potential antihypertensive candidates” (Bioorg Med Chem, 2013):

Columns and labels:
Rattus norvegicus [1] = assay: Antihypertensive activity in rat spontaneous hypertensive model assessed as mean arterial blood pressure at 80 mg/kg, po measured at 8 hrs by tail-cuff method (reference value: 155.8 +/- 11.54 mmHg); type: functional, Artery
Rattus norvegicus [2] = assay: Antihypertensive activity in rat spontaneous hypertensive model assessed as mean arterial blood pressure at 80 mg/kg, po measured at 6 hrs by tail-cuff method (reference value: 155.8 +/- 7.97 mmHg); type: functional, Artery
Rattus norvegicus [3] = assay: Antihypertensive activity in rat spontaneous hypertensive model assessed as mean arterial blood pressure at 80 mg/kg, po measured at 4 hrs by tail-cuff method (reference value: 154.4 +/- 20.1 mmHg); type: functional, Artery
Rattus norvegicus [4] = assay: Antihypertensive activity in rat spontaneous hypertensive model assessed as mean arterial blood pressure at 80 mg/kg, po measured at 2 hrs by tail-cuff method (reference value: 157.41 +/- 9.62 mmHg); type: functional, Artery
Rattus norvegicus [5] = assay: Antihypertensive activity in rat spontaneous hypertensive model assessed as mean arterial blood pressure at 80 mg/kg, po measured at 1 hr by tail-cuff method (reference value: 158.9 +/- 13.65 mmHg); type: functional, Artery
Rattus norvegicus [6] = assay: Antihypertensive activity in rat spontaneous hypertensive model assessed as mean arterial blood pressure at 80 mg/kg, po measured at 0.5 hrs by tail-cuff method (reference value: 156.2 +/- 7.21 mmHg); type: functional, Artery
Rattus norvegicus [7] = assay: Antihypertensive activity in rat spontaneous hypertensive model assessed as diastolic arterial blood pressure at 80 mg/kg, po measured at 8 hrs by tail-cuff method (reference value: 135.3 +/- 8.21 mmHg); type: functional, Artery
Rattus norvegicus [8] = assay: Antihypertensive activity in rat spontaneous hypertensive model assessed as diastolic arterial blood pressure at 80 mg/kg, po measured at 6 hrs by tail-cuff method (reference value: 141.2 +/- 7.34 mmHg); type: functional, Artery
Rattus norvegicus [9] = assay: Antihypertensive activity in rat spontaneous hypertensive model assessed as diastolic arterial blood pressure at 80 mg/kg, po measured at 4 hrs by tail-cuff method (reference value: 141.4 +/- 7.11 mmHg); type: functional, Artery
Rattus norvegicus [10] = assay: Antihypertensive activity in rat spontaneous hypertensive model assessed as diastolic arterial blood pressure at 80 mg/kg, po measured at 2 hrs by tail-cuff method (reference value: 142.9 +/- 18.07 mmHg); type: functional, Artery
Rattus norvegicus [11] = assay: Antihypertensive activity in rat spontaneous hypertensive model assessed as diastolic arterial blood pressure at 80 mg/kg, po measured at 1 hr by tail-cuff method (reference value: 146.2 +/- 13.19 mmHg); type: functional, Artery
Rattus norvegicus [12] = assay: Antihypertensive activity in rat spontaneous hypertensive model assessed as diastolic arterial blood pressure at 80 mg/kg, po measured at 0.5 hrs by tail-cuff method (reference value: 138.7 +/- 9.2 mmHg); type: functional, Artery
Rattus norvegicus [13] = assay: Antihypertensive activity in rat spontaneous hypertensive model assessed as systolic arterial blood pressure at 80 mg/kg, po measured at 8 hrs by tail-cuff method (reference value: 174 +/- 12.1 mmHg); type: functional, Artery
Rattus norvegicus [14] = assay: Antihypertensive activity in rat spontaneous hypertensive model assessed as systolic arterial blood pressure at 80 mg/kg, po measured at 6 hrs by tail-cuff method (reference value: 176.7 +/- 15.21 mmHg); type: functional, Artery
Rattus norvegicus [15] = assay: Antihypertensive activity in rat spontaneous hypertensive model assessed as systolic arterial blood pressure at 80 mg/kg, po measured at 4 hrs by tail-cuff method (reference value: 172.9 +/- 10.21 mmHg); type: functional, Artery
Rattus norvegicus [16] = assay: Antihypertensive activity in rat spontaneous hypertensive model assessed as systolic arterial blood pressure at 80 mg/kg, po measured at 2 hrs by tail-cuff method (reference value: 172.6 +/- 17.3 mmHg); type: functional, Artery
Rattus norvegicus [17] = assay: Antihypertensive activity in rat spontaneous hypertensive model assessed as systolic arterial blood pressure at 80 mg/kg, po measured at 1 hr by tail-cuff method (reference value: 181.2 +/- 16.37 mmHg); type: functional, Artery
Rattus norvegicus [18] = assay: Antihypertensive activity in rat spontaneous hypertensive model assessed as systolic arterial blood pressure at 80 mg/kg, po measured at 0.5 hrs by tail-cuff method (reference value: 178.5 +/- 10.13 mmHg); type: functional, Artery
Rattus norvegicus [19] = assay: Toxicity in rat spontaneous hypertensive model assessed as heart rate at 80 mg/kg, po measured at 8 hrs by tail-cuff method (reference value: 397.2 +/- 24.87 bpm); type: organism-based; set-up: dose 80 mg/kg, route oral; conditions: in vivo
Rattus norvegicus [20] = assay: Toxicity in rat spontaneous hypertensive model assessed as heart rate at 80 mg/kg, po measured at 6 hrs by tail-cuff method (reference value: 405.1 +/- 24 bpm); type: organism-based; set-up: dose 80 mg/kg, route oral; conditions: in vivo
Rattus norvegicus [21] = assay: Toxicity in rat spontaneous hypertensive model assessed as heart rate at 80 mg/kg, po measured at 4 hrs by tail-cuff method (reference value: 403.1 +/- 15.92 bpm); type: organism-based; set-up: dose 80 mg/kg, route oral; conditions: in vivo
Rattus norvegicus [22] = assay: Toxicity in rat spontaneous hypertensive model assessed as heart rate at 80 mg/kg, po measured at 2 hrs by tail-cuff method (reference value: 399.5 +/- 19.68 bpm); type: organism-based; set-up: dose 80 mg/kg, route oral; conditions: in vivo
Rattus norvegicus [23] = assay: Toxicity in rat spontaneous hypertensive model assessed as heart rate at 80 mg/kg, po measured at 1 hr by tail-cuff method (reference value: 403.9 +/- 12.41 bpm); type: organism-based; set-up: dose 80 mg/kg, route oral; conditions: in vivo
Rattus norvegicus [24] = assay: Toxicity in rat spontaneous hypertensive model assessed as heart rate at 80 mg/kg, po measured at 0.5 hrs by tail-cuff method (reference value: 406.5 +/- 13.15 bpm); type: organism-based; set-up: dose 80 mg/kg, route oral; conditions: in vivo

`COc1cc2c(cc1OCC(O)CNC(C)C)C(=O)C(C)OC2` (stereo not drawn) showed an Activity (Rattus norvegicus [1]) of 124.2 mmHg, an Activity (Rattus norvegicus [2]) of 121 mmHg and an Activity (Rattus norvegicus [3]) of 118.1 mmHg. It also gave an Activity (Rattus norvegicus [4]) of 122.1 mmHg, an Activity (Rattus norvegicus [5]) of 128.8 mmHg and an Activity (Rattus norvegicus [6]) of 134 mmHg. It also gave an Activity (Rattus norvegicus [7]) of 107.7 mmHg, an Activity (Rattus norvegicus [8]) of 99 mmHg and an Activity (Rattus norvegicus [9]) of 99.8 mmHg. It also gave an Activity (Rattus norvegicus [10]) of 101 mmHg, an Activity (Rattus norvegicus [11]) of 113.9 mmHg and an Activity (Rattus norvegicus [12]) of 113.7 mmHg. The Activity (Rattus norvegicus [13]) was 162.6 mmHg, the Activity (Rattus norvegicus [14]) was 164.2 mmHg and the Activity (Rattus norvegicus [15]) was 166.6 mmHg. The Activity (Rattus norvegicus [16]) was 165.7 mmHg, the Activity (Rattus norvegicus [17]) was 164.5 mmHg and the Activity (Rattus norvegicus [18]) was 174.1 mmHg. For the same compound, the Activity (Rattus norvegicus [19]) was 367.7 bpm, the Activity (Rattus norvegicus [20]) was 355.2 bpm and the Activity (Rattus norvegicus [21]) was 358.5 bpm. For the same compound, the Activity (Rattus norvegicus [22]) was 356.9 bpm, the Activity (Rattus norvegicus [23]) was 365.6 bpm and the Activity (Rattus norvegicus [24]) was 367 bpm.
Compound `COc1cc2c(cc1OCC(O)CNC(C)C)COC(C)C2=O` (stereo not drawn) has an Activity (Rattus norvegicus [1]) of 119 mmHg, an Activity (Rattus norvegicus [2]) of 114 mmHg and an Activity (Rattus norvegicus [3]) of 97.8 mmHg. It also gave an Activity (Rattus norvegicus [4]) of 103.9 mmHg, an Activity (Rattus norvegicus [5]) of 123.1 mmHg and an Activity (Rattus norvegicus [6]) of 142.2 mmHg. For the same compound, the Activity (Rattus norvegicus [7]) was 98 mmHg, the Activity (Rattus norvegicus [8]) was 91.4 mmHg and the Activity (Rattus norvegicus [9]) was 83 mmHg. For the same compound, the Activity (Rattus norvegicus [10]) was 84.1 mmHg, the Activity (Rattus norvegicus [11]) was 102.8 mmHg and the Activity (Rattus norvegicus [12]) was 128.7 mmHg. For the same compound, the Activity (Rattus norvegicus [13]) was 158.3 mmHg, the Activity (Rattus norvegicus [14]) was 150.5 mmHg and the Activity (Rattus norvegicus [15]) was 141 mmHg. It also gave an Activity (Rattus norvegicus [16]) of 152.8 mmHg, an Activity (Rattus norvegicus [17]) of 160.9 mmHg and an Activity (Rattus norvegicus [18]) of 169.2 mmHg. The Activity (Rattus norvegicus [19]) was 372.8 bpm, the Activity (Rattus norvegicus [20]) was 370 bpm and the Activity (Rattus norvegicus [21]) was 361.4 bpm. For the same compound, the Activity (Rattus norvegicus [22]) was 365.1 bpm, the Activity (Rattus norvegicus [23]) was 378.3 bpm and the Activity (Rattus norvegicus [24]) was 385.4 bpm.
